Entries after “also recorded” stand apart in the source; their conditions may differ.
Legend:
[1] = test system: human VLDLR gene expression in SNU601 and MKN74 cells; assay: RT-PCR analysis of human VLDLR expression in gastric cancer cells treated with 5-aza-dC and/or TSA; assay type: cell-based
Excerpt: An empty pGL3 basic vector (mock) and constructs each comprising a different one of 3 sequences (fragments 1 to 3) upstream or in the proximity of VLDLR exon 1 were separately introduced into SNU601 and MKN74 cells. Luciferase activity was normalized relative to that of an internal control. Data shown in FIG. 3B contains mean values±SEMs of triplicate experiments of 3 different constructs. […] Arrows indicate fragments that were digested with restriction enzymes in a specific manner at sites recognized as methylated CpGs. […] With the use of two fragments (BS-1 and BS-2), all of the 71 CpG sites were subjected to sequencing. Squares represent CpG sites (white square: unmethylated site; and black square: methylated site).
The human VLDLR gene expression was examined in the cases in which CpG islands of the human VLDLR gene in gastric cancer cells were demethylated. Specifically, gastric cancer cells were treated in the presence of 5-aza-dC (serving as a transmethylase inhibitor) at different concentrations for 5 days, followed by determination of the capacity of inducing human VLDLR mRNA. […] RT-PCR was carried out with the use of two types of specific primers used for amplification of human VLDLR gene, followed by electrophoresis. GAPDH was used as an internal control. […]

[2] = test system: CpG islands of the human VLDLR gene in gastric cancer cells; assay: Demethylation of VLDLR CpG islands by culturing gastric cancer cells with 5-aza-dC; assay type: cell-based; conditions: gastric cancer cells cultured in the presence of 5-aza-dC
Excerpt: In addition, the extent of methylation of the CpG islands strongly correlated with inhibition of the expression of the human VLDLR gene in some gastric cancer cells.

## Nc1ncn([C@H]2C[C@H](O)[C@@H](CO)O2)c(=O)n1 [5-aza-dC, 5-azadeoxycytidine]
[1]; SNU601 and MKN74 cells (no VLDLR expression, no homozygous deletion), 5-aza-dC for 5 days (10 μM in FIG. 3A legend)
  human VLDLR mRNA expression after 5-aza-dC treatment: possible to recover the expression level of the human VLDLR gene; also recorded: found to have the capacity of inducing human VLDLR mRNA
[2]
  demethylation of CpG islands of the human VLDLR gene: possible to demetylate such CpG islands

## CC(/C=C/C(=O)NO)=C\[C@@H](C)C(=O)c1ccc(N(C)C)cc1 [TSA, trichostatin A]
[1]; SNU601 and MKN74 cells with densely methylated VLDLR CpG islands, TSA (10 ng/ml in FIG. 3A legend)
  human VLDLR gene expression level in the presence of TSA: equivalent to that obtained in the absence of TSA
